Values quoted from earlier work as cited in patent US20240173376A1, “TREM-1 INHIBITORS FOR THE TREATMENT OF MARFAN SYNDROME” (INSERM (INSTITUT NATIONAL DE LA SANTÉ ET DE LA RECHERCHE …, priority 2021, published 2024).

How the values were obtained:
[1] = Marfan patients (Shores et al 1994; Ladouceur et al 2007)
AT1R [2] = details: animal model of Marfan's disease (Hibashi et al, Science, 2006)
AT1R [3] = target: T1, AT1R (Homo sapiens, UniProt P30556)
T1 construct: host or cells: patients in randomized clinical studies
T1 sequence (P30556 1-359): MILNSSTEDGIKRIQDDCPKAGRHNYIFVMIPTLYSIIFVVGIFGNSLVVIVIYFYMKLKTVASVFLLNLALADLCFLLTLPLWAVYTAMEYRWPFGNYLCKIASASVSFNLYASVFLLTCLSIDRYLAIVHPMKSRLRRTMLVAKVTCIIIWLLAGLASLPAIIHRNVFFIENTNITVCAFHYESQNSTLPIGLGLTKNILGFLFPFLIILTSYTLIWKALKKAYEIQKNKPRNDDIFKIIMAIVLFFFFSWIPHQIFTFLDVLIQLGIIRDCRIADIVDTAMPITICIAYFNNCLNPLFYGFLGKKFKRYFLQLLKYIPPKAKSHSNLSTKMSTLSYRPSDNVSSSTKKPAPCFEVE

Row | Compound | aortic dilatation and risk of dissection [1] | arterial wall architecture and aortic dilatation (AT1R [2]) | benefit in humans (AT1R [3]; randomized, double-blind, multicenter study (Milleron et al, Eur Heart J)) | progression of aortic dilatation in humans (AT1R [3]; study with comparable methodology, N=192 (Mullen et al. Lancet 2019))
1 | CC(C)NCC(O)COc1cccc2ccccc12 (stereo not shown) [propranolol] | limits aortic dilatation and the risk of dissection |  |  | 
2 | CCCCc1nc(Cl)c(CO)n1Cc1ccc(-c2ccccc2-c2nn[nH]n2)cc1 [Losartan] |  | improves arterial wall architecture and reduces aortic dilatation | no benefit | a benefit
